Results: article PMC6153549 (Investigational New Drugs, 2018)
Entries after “also recorded” stand apart in the source; their conditions may differ. Where two headings read alike, the source gives them in different places.

Key:
[1] = Plasma pharmacokinetics of lapatinib in rats (HPLC-MS/MS, non-compartmental); assay type: in vivo, Wistar rats; conditions: for AUC0-t / AUC(0-inf) / Cmax / Vd/F / k el / MRT last / tmax / AUMC0-t / Cl/F: plasma; for MRT last: read-out: MRT0-t
Procedure: The experimental protocol for this study was reviewed and approved by the Local Ethics Committee. All procedures were performed in accordance with the European Union regulations concerning the handling and use of laboratory animals. The study was based on the required minimum number of animals and observation time in order to obtain consistent data. […] The animals were allowed to acclimatise for a week before the beginning of the experiments. The rats were divided into three groups. […] In order to make sure that the animals received the entire dose of the drug, 1 mL of DMSO was then administered to rinse the probe. 80 μL of blood was collected from each rat by cutting off a piece of his tail. […] The blood samples were transferred into heparinised tubes and they were centrifuged at 2880 g for 10 min at 4 °C.
Chromatographic separation was performed on a Kinetex C18 column (50 × 4.6 mm, 2.6 μm, Phenomenex, Torrance, CA, USA). The column temperature and injection volume were set at 35 °C and 10 μL, respectively. The mobile phase comprised 0.1% formic acid in water with 5 mM ammonium formate (eluent A) and acetonitrile with 10% phase A (eluent B).
An aliquot of the rat plasma (20 μL) was mixed with 50 μL of IS solution (100 ng/mL) and 930 μL of methanol and then vortexed for 30 s. As a result, a total dilution factor of 50 was obtained. After centrifugation at 10,000 g (10 min), the supernatant was transferred into amber glass HPLC vials. The validation was performed according to the guidelines of EMA concerning validation of bioanalytical methods.
The pharmacokinetic parameters were estimated with the non-compartmental method, using Phoenix® WinNonlin® 7.0 software (Certara L.P.). kel – elimination rate constant; AUC0-t – area under the plasma concentration-time curve from zero to the time of the last measurable concentration; AUC0-∞ – area under the plasma concentration-time curve from zero to infinity; t0.5 – elimination half-life; Cl/F – clearance; Vd/F – volume of distribution; Cmax – maximum plasma concentration; tmax – time necessary to reach the maximum concentration; MRT0-t – mean residence time; AUMC0-t – area under the first moment curve.

[2] = cited from earlier work
[3] = test system: UGTs; conditions: in vitro, human liver microsomes; cited from earlier work
[4] = test system: UGT1A1; parameters: method as in PMID 26642944; conditions: cited from earlier work
[5] = test system: UGT1A7; parameters: method as in PMID 26642944; conditions: cited from earlier work
[6] = test system: UGT1A4; parameters: method as in PMID 26642944; conditions: cited from earlier work
[7] = male, Wistar, rat, po, 100 mg/kg, rats, lapatinib 100 mg/kg p.o. + paracetamol 100 mg/kg p.o. (IL + PA), M ± SD
[8] = male, Wistar, rat, po, 100 mg/kg, rats, lapatinib 100 mg/kg p.o. alone (IIL), M ± SD
[9] = rats, lapatinib 100 mg/kg p.o. + paracetamol 100 mg/kg p.o. (IL + PA), M ± SD
[10] = rats, lapatinib 100 mg/kg p.o. alone (IIL), M ± SD
[11] = patients treated with lapatinib

Q: For `CS(=O)(=O)CCNCc1ccc(-c2ccc3ncnc(Nc4ccc(OCc5cccc(F)c5)c(Cl)c4)c3c2)o1` [lapatinib, Lapatinib], which AUC0-t [1, 7] is on record?
A: 20700 ± 8270 ng·h/mL

Q: And the AUC(0-inf) [1, 7]?
A: 39500 ± 24000 ng·h/mL

Q: What about the Cmax [1, 7] of the same compound?
A: 2240 ± 585 ng/mL

Q: And the Vd/F [1, 7]?
A: 17.5 ± 2.55 L

Q: What about the k el [1, 7] of the same compound?
A: 1.94e-05 s⁻¹

Q: And the MRT last [1, 7]?
A: 7.28 ± 3.15 h

Q: And the AUC0-t [1, 8]?
A: 6080 ± 3930 ng·h/mL

Q: And the AUC(0-inf) [1, 8]?
A: 8040 ± 4750 ng·h/mL

Q: And the Cmax [1, 8]?
A: 787 ± 213 ng/mL

Q: And the Vd/F [1, 8]?
A: 57.2 ± 23.3 L

Q: And the k el [1, 8]?
A: 2.5e-05 s⁻¹

Q: And the MRT last [1, 8]?
A: 5.77 ± 1.95 h

Q: What about the tmax ([1]; male, Wistar, rat, po, 100 mg/kg, read-out: tmax) of the same compound?
A: 2.42 ± 1.11 h

Q: And the “increase in Cmax” value ([1]; rats, co-administration with paracetamol (IL + PA) vs lapatinib alone (IIL))?
A: 184%

Q: And the AUMC0-t [1, 9]?
A: 620.79 ± 1170.66 (188.6) mg × h^2/L

Q: And the Cl/F [1, 9]?
A: 2.81 ± 1.20 (42.8) L/h

Q: And the tmax [1, 9]?
A: 2.50 ± 0.84 (33.5) h

Q: And the AUMC0-t [1, 10]?
A: 40.79 ± 37.98 (93.1) mg × h^2/L

Q: And the Cl/F [1, 10]?
A: 11.46 ± 6.76 (59.0) L/h

Q: What about the “patients with isolated ALT increase more than 3 times ULN” value ([2]; patients subjected to lapatinib therapy) of the same compound?
A: 3–5%

Q: And the “patients in whom ULN was exceeded 5–20 times” value [2, 11]?
A: 1.6%

Q: What about the “patients with hyperbilirubinemia and severe liver damage” value [2, 11] of the same compound?
A: 0.2%

Q: And the “inhibition of paracetamol glucuronidation” value [3]?
A: slight inhibitory effect; also recorded: weak inhibitor

Q: And the UGT1A1 inhibition [4]?
A: strong competitive inhibitor

Q: What about the UGT1A7 inhibition type [5] of the same compound?
A: non-competitive

Q: And the UGT1A4 inhibition type [6]?
A: mixed
